According to ChEMBL document CHEMBL5335870, “Discovery of Hepatitis B Virus Surface Antigen Suppressor GS-8873” (ACS Med Chem Lett, 2024):
Activity calls are given as the source filed them. The calls are words filed in the database; no cut-off is given here.

How the values were obtained:
[1] = tested on: Hepatitis B virus; assay: Antiviral activity against genotype D HBV infected in sodium taurocholate co-transporting polypeptide receptor-expressing stable HepG2 cell line assessed as suppression of HBsAg level incubated for 5 days by multiplex chemiluminescent MSD assay; format: functional, organism-based; conditions: HepG2, 120 h
[2] = Oral bioavailability in Sprague-Dawley rat after 24 hrs by LC/MS/MS method; format: ADME, organism-based; conditions: in vivo
[3] = Clearance in Sprague-Dawley rat at […], iv measured after 24 hrs by LC/MS/MS method; format: ADME, organism-based; conditions: in vivo
[4] = Lipophilicity, logD of the compound; format: physicochemical; conditions: octanol/water
[5] = Hepatic extraction in rat; format: ADME; conditions: read-out: ERH
[6] = In vivo clearance in dog; format: ADME, organism-based, Canis lupus familiaris
[7] = Oral bioavailability in rat at 5 mg/kg; format: ADME, organism-based; conditions: in vivo
[8] = In vivo clearance in rat; format: ADME, organism-based
[9] = Hepatic extraction in cynomolgus monkey; format: ADME, Macaca fascicularis; conditions: read-out: ERH
[10] = In vivo clearance in cynomolgus monkey; format: ADME, organism-based, Macaca fascicularis
[11] = Hepatic extraction in dog; format: ADME, Canis lupus familiaris; conditions: read-out: ERH
[12] = Oral bioavailability in cynomolgus monkey at 5 mg/kg; format: ADME, organism-based, Macaca fascicularis; conditions: in vivo
[13] = Oral bioavailability in dog at 5 mg/kg; format: ADME, organism-based, Canis lupus familiaris; conditions: in vivo
[14] = tested on: Primary hepatocyte; assay: Effect on cccDNA level in HBV infected primary human hepatocyte at 0.5 uM media replaced for every 2 to 3 days incubated for 12 days by Southern blot analysis; format: functional, cell-based; conditions: Hepatitis B virus, time 12.0 day
[15] = tested on: Primary hepatocyte; assay: Effect on cccDNA level in HBV infected primary human hepatocyte at 0.25 uM media replaced for every 2 to 3 days incubated for 12 days by Southern blot analysis; format: functional, cell-based; conditions: Hepatitis B virus, time 12.0 day

Compound `COCCCOc1cc2c(cc1Cl)-c1cc(=O)c(C(=O)O)cn1N1[C@@H]2CC1(C)C` has an EC50 [1] of 4 nM.
`COCCCOc1cc2c(cc1OCC(F)F)-c1cc(=O)c(C(=O)O)cn1N1[C@@H]2CCC1(C)C` showed a bioavailability [2] of 58%, a clearance [3] of 13.8 mL/min/kg and an EC50 [1] of 5.8 nM.
In the case of `COCCCOc1cc2c(cc1Cl)-c1cc(=O)c(C(=O)O)cn1N1[C@H](C)CC[C@H]21`, the EC50 [1] is reported as 11 nM.
For `COCCOCc1cc2c(cc1Cl)-c1cc(=O)c(C(=O)O)cn1N(C(C)(C)C)C2`, the EC50 [1] was 210 nM.
Compound `COCCCOc1cc2c(cc1Cl)-c1cc(=O)c(C(=O)O)cn1N1[C@@H]2CCCC1(C)C` has an EC50 [1] of 2 nM.
With `COCCCOc1cc2c(cc1OC)-c1cc(=O)c(C(=O)O)cn1C(C1(C)CC1)C2` (stereo not given) the logD [4] was 2.2.
In the case of `CC(C)(C)N1Cc2cc(OCCCOc3cnn(C(F)F)c3)c(Cl)cc2-c2cc(=O)c(C(=O)O)cn21`, the clearance [3] is reported as 25 mL/min/kg and the EC50 [1] is reported as 3.9 nM.
`COCCCOc1cc2c(cc1Cl)-c1cc(=O)c(C(=O)O)cn1N1CCC(C)(C)[C@H]21` showed an EC50 [1] of 12 nM.
Compound `COCCCOc1cc2c(cc1Cl)-c1cc(=O)c(C(=O)O)cn1[C@H](C(C)(C)C)C2` has a logD [4] of 2.5, a hepatic extraction ratio [5] of 0.071 and a clearance [6] of 6 mL/min/kg. It also gave a bioavailability [7] of 41%, a clearance [8] of 5 mL/min/kg and an EC50 [1] of 150 nM. For the same compound, the hepatic extraction ratio [9] was 0.11, the clearance [10] was 2.83 mL/min/kg and the hepatic extraction ratio [11] was 0.2. For the same compound, the bioavailability [12] was 120%.
Compound `COCCCOc1cc2c(cc1Cl)-c1cc(=O)c(C(=O)O)cn1N1[C@@H]2CC[C@@H]1C` has an EC50 [1] of 5.4 nM.
`COCCCOc1cc2c(cc1OCCCOC)[C@H]1CCC(C)(C)N1n1cc(C(=O)O)c(=O)cc1-2` gave an EC50 [1] of 11 nM.
`COCCCOc1cc2c(cc1C1COC1)-c1cc(=O)c(C(=O)O)cn1N1[C@@H]2CCC1(C)C` showed an EC50 [1] of 13 nM.
With `COCCCOc1cc2c(cc1OC(C)(C)C)-c1cc(=O)c(C(=O)O)cn1N1[C@@H]2CCC1(C)C` the EC50 [1] was 78 nM.
In the case of `COCCCOc1cc2c(cc1Cl)-c1cc(=O)c(C(=O)O)cn1N(C(C)(C)C)[C@H]2C`, the EC50 [1] is reported as 97 nM.
In the case of `CN(C)CCCOc1cc2c(cc1Cl)-c1cc(=O)c(C(=O)O)cn1N(C(C)(C)C)C2`, the EC50 [1] is reported as 620 nM.
In the case of `COCCCOc1cc2c(cc1Cl)-c1cc(=O)c(C(=O)O)cn1N1CCC[C@H]21`, the EC50 [1] is reported as 55 nM.
`CC(C)(C)N1Cc2cc(C#CC3CC3)c(Cl)cc2-c2cc(=O)c(C(=O)O)cn21` showed an EC50 [1] of 16 nM.
`CCc1cc2c(cc1OCCCOC)[C@H]1CCC(C)(C)N1n1cc(C(=O)O)c(=O)cc1-2` showed an EC50 [1] of 0.45 nM.
For `COCCCOc1cc2c(cc1Cl)-c1cc(=O)c(C(=O)O)cn1N1[C@@H]2CCC12CC2`, the EC50 [1] was 1 nM.
For `CC(C)(C)N1Cc2cc(-c3ccccn3)c(Cl)cc2-c2cc(=O)c(C(=O)O)cn21`, the EC50 [1] was 47 nM.
With `COCCCOc1cc2c(cc1OC)-c1cc(=O)c(C(=O)O)cn1[C@H](C(C)C)C2` the logD [4] was 2.1, the hepatic extraction ratio [5] was 0.26 and the bioavailability [13] was 90%. The clearance [6] was 11.2 mL/min/kg, the bioavailability [7] was 56% and the clearance [8] was 18.3 mL/min/kg. The EC50 [1] was 15 nM, the hepatic extraction ratio [9] was 0.43 and the clearance [10] was 11.3 mL/min/kg. The hepatic extraction ratio [11] was 0.37 and the bioavailability [12] was 84%.
Compound `COCCCOc1cc2c(cc1Cl)-c1cc(=O)c(C(=O)O)cn1N(C(C)(C)C)[C@@H]2C` has an EC50 [1] of 390 nM.
With `C[C@H](Cn1cnc2c(N)ncnc21)OCP(=O)(O)O` the Activity [14] was “inactive”.
`COCCCOc1cc2c(cc1OC(F)F)-c1cc(=O)c(C(=O)O)cn1N1[C@@H]2CCC1(C)C` showed a bioavailability [2] of 60%, a clearance [3] of 9 mL/min/kg and an EC50 [1] of 0.97 nM.
With `COCCCOc1cc2c(cc1OC)-c1cc(=O)c(C(=O)O)cn1N1[C@@H]2CCC1(C)C` the bioavailability [2] was 84%, the clearance [3] was 16.7 mL/min/kg and the EC50 [1] was 2.1 nM.
`CC(C)(C)N1Cc2cc(C#Cc3cnc(N4CC5CCC(C4)N5C4COC4)nc3)c(Cl)cc2-c2cc(=O)c(C(=O)O)cn21` gave a bioavailability [2] of 30%, a clearance [3] of 15 mL/min/kg and an EC50 [1] of 2.1 nM.
Work on `COCCCOc1cc2c(cc1OC(C)C)-c1cc(=O)c(C(=O)O)cn1N1[C@@H]2CCC1(C)C` yielded a bioavailability [2] of 95%, a clearance [3] of 16.2 mL/min/kg and an EC50 [1] of 6.4 nM.
In the case of `COCCCOc1cc2c(cc1Cl)-c1cc(=O)c(C(=O)O)cn1N1CC(C)(C)C[C@H]21`, the EC50 [1] is reported as 41 nM.
`COCCCOc1cc2c(cc1S(C)(=O)=O)-c1cc(=O)c(C(=O)O)cn1N1[C@@H]2CCC1(C)C` showed an EC50 [1] of 52 nM.
In the case of `COCCCNc1cc2c(cc1Cl)-c1cc(=O)c(C(=O)O)cn1N(C(C)(C)C)C2`, the EC50 [1] is reported as 18 nM.
With `CC(C)(C)N1Cc2cc(N3CCCC3)c(Cl)cc2-c2cc(=O)c(C(=O)O)cn21` the EC50 [1] was 1 nM.
For `COCCCOc1cc2c(cc1C1CC1)-c1cc(=O)c(C(=O)O)cn1N1[C@@H]2CCC1(C)C`, the clearance [3] was 16.7 mL/min/kg and the EC50 [1] was 0.78 nM.
Compound `CC(C)(C)N1Cc2cc(C#Cc3ccc(N4CC5CCC(C4)O5)nc3)c(Cl)cc2-c2cc(=O)c(C(=O)O)cn21` has an EC50 [1] of 1.5 nM.
With `COCCCOc1cc2c(cc1Cl)-c1cc(=O)c(C(=O)O)cn1[C@H](C1(C)CC1)C2` the logD [4] was 2.4, the EC50 [1] was 3.8 nM and the Activity [15] was “inactive”.
In the case of `COCCCOc1cc2c(cc1Cl)-c1cc(=O)c(C(=O)O)cn1N1[C@@H]2COCC1(C)C`, the EC50 [1] is reported as 2.9 nM.
Compound `COCCCOc1cc2c(cc1Cl)-c1cc(=O)c(C(=O)O)cn1N1[C@@H]2CCC1(C)C` has a bioavailability [2] of 66%, a clearance [3] of 4.5 mL/min/kg and an EC50 [1] of 1.7 nM.
`COCCCOc1cc2c(cc1Cl)-c1cc(=O)c(C(=O)O)cn1N1[C@@H]2CCC12COC2` gave an EC50 [1] of 72 nM.
`CC(C)(C)N1Cc2cc(OCC3COC3)c(Cl)cc2-c2cc(=O)c(C(=O)O)cn21` showed a bioavailability [2] of 91%, a clearance [3] of 20 mL/min/kg and an EC50 [1] of 7.6 nM.
With `COCCCOc1cc2c(cc1OC(F)(F)F)-c1cc(=O)c(C(=O)O)cn1N1[C@@H]2CCC1(C)C` the bioavailability [2] was 47%, the clearance [3] was 8 mL/min/kg and the EC50 [1] was 1.1 nM.
In the case of `COCCCOc1cc2c(cc1Cl)-c1cc(=O)c(C(=O)O)cn1N1[C@H]2CCC1(C)C`, the EC50 [1] is reported as 420 nM.
`CCOc1cc2c(cc1OCCCOC)[C@H]1CCC(C)(C)N1n1cc(C(=O)O)c(=O)cc1-2` gave a bioavailability [2] greater than 100%, a clearance [3] of 20 mL/min/kg and an EC50 [1] of 7.5 nM.
For `CC(C)(C)N1Cc2cc(OCC3CC(F)(F)C3)c(Cl)cc2-c2cc(=O)c(C(=O)O)cn21`, the bioavailability [2] was 56%, the clearance [3] was 4.17 mL/min/kg and the EC50 [1] was 12 nM.
